Measurements published in US11793849B2, “Method of Chinese herbal medicine extract used for treating multiple diseases caused by drug resistant bacteria infection” (priority 2016, dated 2023).
Like-named read-outs stand apart in the source and are kept apart here.

System: MDRAB
Experiment: Checkerboard assay (combined-use MIC, FIC)
Format: cell-based, Acinetobacter baumannii
Settings: for FIC, all strains / MIC50 of the antibiotic after combined use / MIC90 of the antibiotic after combined use / reduction of the antibiotic's MIC50 vs single use / reduction of the antibiotic's MIC90 vs single use / share of strains with FIC ≤ 0.5: 20 MDRABs; for MIC: Acinetobacter baumannii, read-out: single-use MIC
Procedure, shortened: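 Checkerboard combinations of S20b and antibiotic run per NCCLS method against ESBL E. coli, MDR A. baumannii and MDR P. aeruginosa.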

[1] = antibiotic with 60% ethanol extract
[2] = antibiotic with 95% ethanol extract
[3] = antibiotic with EA (10% ethanol extract)
[4] = antibiotic with EA (water extract)

Compound: C[C@H]1COc2c(N3CCN(C)CC3)c(F)cc3c(=O)c(C(=O)O)cn1c23 [LVX, Levofloxacin]
- FIC, all strains [1]: ≤ 2
- MIC50 of the antibiotic after combined use [1]: 4 µg/mL
- MIC90 of the antibiotic after combined use [1]: 8 µg/mL
- reduction of the antibiotic's MIC50 vs single use [1]: 50%
- reduction of the antibiotic's MIC90 vs single use [1]: 75%
- share of strains with FIC ≤ 0.5 [1]: 5%
- FIC, all strains [2]: ≤ 2
- MIC50 of the antibiotic after combined use [2]: 4 µg/mL
- MIC90 of the antibiotic after combined use [2]: 8 µg/mL
- reduction of the antibiotic's MIC50 vs single use [2]: 50%
- reduction of the antibiotic's MIC90 vs single use [2]: 75%
- share of strains with FIC ≤ 0.5 [2]: 20%
- FIC, all strains [3]: ≤ 2
- MIC50 of the antibiotic after combined use [3]: 4 µg/mL
- MIC90 of the antibiotic after combined use [3]: 8 µg/mL
- reduction of the antibiotic's MIC50 vs single use [3]: 50%
- reduction of the antibiotic's MIC90 vs single use [3]: 75%
- share of strains with FIC ≤ 0.5 [3]: 25%
- FIC, all strains [4]: ≤ 2
- MIC50 of the antibiotic after combined use [4]: 2 µg/mL
- MIC90 of the antibiotic after combined use [4]: 8 µg/mL
- reduction of the antibiotic's MIC50 vs single use [4]: 75%
- reduction of the antibiotic's MIC90 vs single use [4]: 75%
- share of strains with FIC ≤ 0.5 [4]: 35%
- MIC (strain A1, EA=10% ethanol extract): 0.5 µg/mL
- MIC (strain A1, EA=60% ethanol extract): 0.5 µg/mL
- MIC (strain A2, EA=10% ethanol extract): 16 µg/mL
- MIC (strain A2, EA=60% ethanol extract): 16 µg/mL
- MIC (strain A3, EA=10% ethanol extract): 16 µg/mL
- MIC (strain A3, EA=60% ethanol extract): 16 µg/mL
- MIC (strain A4, EA=10% ethanol extract): 0.5 µg/mL
- MIC (strain A4, EA=60% ethanol extract): 0.5 µg/mL
- MIC (strain A5, EA=10% ethanol extract): 4 µg/mL
- MIC (strain A5, EA=60% ethanol extract): 4 µg/mL
- MIC (strain A6, EA=10% ethanol extract): 8 µg/mL
- MIC (strain A6, EA=60% ethanol extract): 8 µg/mL
- MIC (strain A7, EA=10% ethanol extract): 8 µg/mL
- MIC (strain A7, EA=60% ethanol extract): 8 µg/mL
- MIC (strain A8, EA=10% ethanol extract): 4 µg/mL
- MIC (strain A8, EA=60% ethanol extract): 4 µg/mL
- MIC (strain A9, EA=10% ethanol extract): 4 µg/mL
- MIC (strain A9, EA=60% ethanol extract): 4 µg/mL
- MIC (strain A10, EA=10% ethanol extract): 32 µg/mL
- MIC (strain A10, EA=60% ethanol extract): 32 µg/mL
- MIC (strain A11, EA=10% ethanol extract): 4 µg/mL
- MIC (strain A11, EA=60% ethanol extract): 4 µg/mL
- MIC (strain A12, EA=10% ethanol extract): 32 µg/mL
- MIC (strain A12, EA=60% ethanol extract): 32 µg/mL
- MIC (strain A13, EA=10% ethanol extract): 32 µg/mL
- MIC (strain A13, EA=60% ethanol extract): 32 µg/mL
- MIC (strain A14, EA=10% ethanol extract): 16 µg/mL
- MIC (strain A14, EA=60% ethanol extract): 16 µg/mL
- MIC (strain A15, EA=10% ethanol extract): 32 µg/mL
- MIC (strain A15, EA=60% ethanol extract): 32 µg/mL
- MIC (strain A16, EA=10% ethanol extract): 8 µg/mL
- MIC (strain A16, EA=60% ethanol extract): 8 µg/mL
- MIC (strain A17, EA=10% ethanol extract): 16 µg/mL
- MIC (strain A17, EA=60% ethanol extract): 16 µg/mL
- MIC (strain A18, EA=10% ethanol extract): 8 µg/mL
- MIC (strain A18, EA=60% ethanol extract): 8 µg/mL
- MIC (strain A19, EA=10% ethanol extract): 16 µg/mL
- MIC (strain A19, EA=60% ethanol extract): 16 µg/mL
- MIC (strain A20, EA=10% ethanol extract): 16 µg/mL
- MIC (strain A20, EA=60% ethanol extract): 16 µg/mL
- combined-use MIC (strain A1, EA (10% ethanol extract) + LVX combined): 0.0625 µg/mL
- combined-use MIC (strain A1, EA (60% ethanol extract) + LVX combined): 0.0625 µg/mL
- combined-use MIC (strain A1, EA (P. clypearia 95% ethanol extract) combined with LVX): 0.25 µg/mL
- combined-use MIC (strain A1, EA (water extract) with LVX): 0.0625 µg/mL
- combined-use MIC (strain A2, EA (10% ethanol extract) + LVX combined): 8 µg/mL
- combined-use MIC (strain A2, EA (60% ethanol extract) + LVX combined): 16 µg/mL
- combined-use MIC (strain A2, EA (P. clypearia 95% ethanol extract) combined with LVX): 8 µg/mL
- combined-use MIC (strain A2, EA (water extract) with LVX): 16 µg/mL
- combined-use MIC (strain A3, EA (10% ethanol extract) + LVX combined): 2 µg/mL
- combined-use MIC (strain A3, EA (60% ethanol extract) + LVX combined): 0.0625 µg/mL
- combined-use MIC (strain A3, EA (P. clypearia 95% ethanol extract) combined with LVX): 2 µg/mL
- combined-use MIC (strain A3, EA (water extract) with LVX): 2 µg/mL
- combined-use MIC (strain A4, EA (10% ethanol extract) + LVX combined): 0.0625 µg/mL
- combined-use MIC (strain A4, EA (60% ethanol extract) + LVX combined): 0.0625 µg/mL
- combined-use MIC (strain A4, EA (P. clypearia 95% ethanol extract) combined with LVX): 0.0625 µg/mL
- combined-use MIC (strain A4, EA (water extract) with LVX): 0.0625 µg/mL
- combined-use MIC (strain A5, EA (10% ethanol extract) + LVX combined): 2 µg/mL
- combined-use MIC (strain A5, EA (60% ethanol extract) + LVX combined): 4 µg/mL
- combined-use MIC (strain A5, EA (water extract) with LVX): 1 µg/mL
- combined-use MIC (strain A6, EA (10% ethanol extract) + LVX combined): 4 µg/mL
- combined-use MIC (strain A6, EA (60% ethanol extract) + LVX combined): 4 µg/mL
- combined-use MIC (strain A6, EA (P. clypearia 95% ethanol extract) combined with LVX): 4 µg/mL
- combined-use MIC (strain A6, EA (water extract) with LVX): 4 µg/mL
- combined-use MIC (strain A7, EA (10% ethanol extract) + LVX combined): 4 µg/mL
- combined-use MIC (strain A7, EA (60% ethanol extract) + LVX combined): 4 µg/mL
- combined-use MIC (strain A7, EA (P. clypearia 95% ethanol extract) combined with LVX): 4 µg/mL
- combined-use MIC (strain A7, EA (water extract) with LVX): 4 µg/mL
- combined-use MIC (strain A8, EA (10% ethanol extract) + LVX combined): 2 µg/mL
- combined-use MIC (strain A8, EA (60% ethanol extract) + LVX combined): 4 µg/mL
- combined-use MIC (strain A8, EA (P. clypearia 95% ethanol extract) combined with LVX): 2 µg/mL
- combined-use MIC (strain A8, EA (water extract) with LVX): 4 µg/mL
- combined-use MIC (strain A9, EA (10% ethanol extract) + LVX combined): 0.0625 µg/mL
- combined-use MIC (strain A9, EA (60% ethanol extract) + LVX combined): 0.0625 µg/mL
- combined-use MIC (strain A9, EA (P. clypearia 95% ethanol extract) combined with LVX): 0.0625 µg/mL
- combined-use MIC (strain A9, EA (water extract) with LVX): 0.0625 µg/mL
- combined-use MIC (strain A10, EA (10% ethanol extract) + LVX combined): 8 µg/mL
- combined-use MIC (strain A10, EA (60% ethanol extract) + LVX combined): 0.0625 µg/mL
- combined-use MIC (strain A10, EA (P. clypearia 95% ethanol extract) combined with LVX): 2 µg/mL
- combined-use MIC (strain A10, EA (water extract) with LVX): 8 µg/mL
- combined-use MIC (strain A11, EA (10% ethanol extract) + LVX combined): 2 µg/mL
- combined-use MIC (strain A11, EA (60% ethanol extract) + LVX combined): 4 µg/mL
- combined-use MIC (strain A11, EA (P. clypearia 95% ethanol extract) combined with LVX): 4 µg/mL
- combined-use MIC (strain A11, EA (water extract) with LVX): 2 µg/mL
- combined-use MIC (strain A12, EA (10% ethanol extract) + LVX combined): 8 µg/mL
- combined-use MIC (strain A12, EA (60% ethanol extract) + LVX combined): 1 µg/mL
- combined-use MIC (strain A12, EA (P. clypearia 95% ethanol extract) combined with LVX): 1 µg/mL
- combined-use MIC (strain A12, EA (water extract) with LVX): 2 µg/mL
- combined-use MIC (strain A13, EA (10% ethanol extract) + LVX combined): 8 µg/mL
- combined-use MIC (strain A13, EA (60% ethanol extract) + LVX combined): 0.0625 µg/mL
- combined-use MIC (strain A13, EA (P. clypearia 95% ethanol extract) combined with LVX): 2 µg/mL
- combined-use MIC (strain A13, EA (water extract) with LVX): 8 µg/mL
- combined-use MIC (strain A14, EA (10% ethanol extract) + LVX combined): 8 µg/mL
- combined-use MIC (strain A14, EA (60% ethanol extract) + LVX combined): 8 µg/mL
- combined-use MIC (strain A14, EA (P. clypearia 95% ethanol extract) combined with LVX): 8 µg/mL
- combined-use MIC (strain A14, EA (water extract) with LVX): 8 µg/mL
- combined-use MIC (strain A15, EA (10% ethanol extract) + LVX combined): 16 µg/mL
- combined-use MIC (strain A15, EA (60% ethanol extract) + LVX combined): 0.0625 µg/mL
- combined-use MIC (strain A15, EA (P. clypearia 95% ethanol extract) combined with LVX): 2 µg/mL
- combined-use MIC (strain A15, EA (water extract) with LVX): 0.0625 µg/mL
- combined-use MIC (strain A16, EA (10% ethanol extract) + LVX combined): 4 µg/mL
- combined-use MIC (strain A16, EA (60% ethanol extract) + LVX combined): 4 µg/mL
- combined-use MIC (strain A16, EA (P. clypearia 95% ethanol extract) combined with LVX): 4 µg/mL
- combined-use MIC (strain A16, EA (water extract) with LVX): 2 µg/mL
- combined-use MIC (strain A17, EA (10% ethanol extract) + LVX combined): 4 µg/mL
- combined-use MIC (strain A17, EA (60% ethanol extract) + LVX combined): 4 µg/mL
- combined-use MIC (strain A17, EA (P. clypearia 95% ethanol extract) combined with LVX): 4 µg/mL
- combined-use MIC (strain A17, EA (water extract) with LVX): 8 µg/mL
- combined-use MIC (strain A18, EA (10% ethanol extract) + LVX combined): 4 µg/mL
- combined-use MIC (strain A18, EA (60% ethanol extract) + LVX combined): 4 µg/mL
- combined-use MIC (strain A18, EA (P. clypearia 95% ethanol extract) combined with LVX): 4 µg/mL
- combined-use MIC (strain A18, EA (water extract) with LVX): 1 µg/mL
- combined-use MIC (strain A19, EA (10% ethanol extract) + LVX combined): 2 µg/mL
- combined-use MIC (strain A19, EA (60% ethanol extract) + LVX combined): 8 µg/mL
- combined-use MIC (strain A19, EA (P. clypearia 95% ethanol extract) combined with LVX): 8 µg/mL
- combined-use MIC (strain A19, EA (water extract) with LVX): 8 µg/mL
- combined-use MIC (strain A20, EA (10% ethanol extract) + LVX combined): 4 µg/mL
- combined-use MIC (strain A20, EA (60% ethanol extract) + LVX combined): 8 µg/mL
- combined-use MIC (strain A20, EA (P. clypearia 95% ethanol extract) combined with LVX): 8 µg/mL
- combined-use MIC (strain A20, EA (water extract) with LVX): 4 µg/mL
- combined-use MIC (strain AS, EA (P. clypearia 95% ethanol extract) combined with LVX): 2 µg/mL
